In patent US7615641B2, “Long chain aliphatic alcohol derivatives and methods of making and using same” (Sino Pharmaceuticals Corporation, priority 2004, dated 2009):

melting point | SMILES
58 to 60 °C | CCCCCCCCCCCCCCCCCCCCCCCCCCCCOC(=O)c1cccnc1.Cl
65 to 70 °C | CCCCCCCCCCCCCCCCCCCCCCCCCCCCOC(=O)c1cccnc1 [1-octacosanyl nicotinate]
